“Also recorded” adds a separate entry of the source.
Assays:
Swiss mice [1] = assay: Locomotor activity test; assay type: in vivo, mouse
Swiss mice [2] = assay: Elevated plus maze test; assay type: in vivo, mouse
[3] = Thermodynamic solubility in PBS; assay type: physicochemical; settings: PBS (pH 7.4), 37 °C, 24 h, hydrochloride salts
Swiss mice [4] = assay: Tail suspension test; assay type: in vivo, mouse; settings: for immobility time, acute treatment: ip 30 min before, 6, 67 at 3 and 10 mg/kg, 69 at 1, 3, 10, 30 mg/kg, imipramine 30 mg/kg
Protocol: The antidepressant-like activity was screened with the widely used tail suspension test. At 30 min before the behavioral assays, the mice were treated with 6, 67, and 69 at 3 mg/kg and 10 mg/kg ip, with 69 also at 1 mg/kg and 30 mg/kg ip, or were injected with 0.9% saline as control. Imipramine (30 mg/kg ip) was used as the reference drug.
(A) Effects of acute ip treatment with 6 (3, 10 mg/kg, n = 13, 9), 67 (3, 10 mg/kg, n = 6, 10), and 69 (1, 3, 10, 30 mg/kg, n = 8, 7, 8, 6) and imipramine (30 mg/kg, n = 8) in the tail suspension test. […] (B) Effects of acute ip treatment with 6 (3, 10 mg/kg, n = 8, 8), 67 (1, 3, 6 mg/kg; n = 5, 5, 5), and 69 (1, 3, 6 mg/kg, n = 10, 5, 5) on locomotor activity of the mice. […] (C) Effects of 10-day chronic ip treatment with 69 (0.3 mg/kg, daily; n = 10) in the tail suspension test. Data are mean values ± SEM of the immobility time, compared to control mice (n = 8): ∗∗, p < 0.01 (unpaired t-test). […]
quality control sample every seven test samples. The absolute matrix effect was checked by comparing the analyte responses in the standard solutions to the samples spiked in the tissue incubation medium from the control experiment without the analyte, and a deviation of less than ±20% was deemed acceptable.
4.2.10In vitro radioligand binding assay
Rats were humanely killed by decapitation and their brains were removed, washed and rapidly dissected on ice. Homogenisation was performed using a homogeniser (PRO Scientific Inc) at 30,000 rpm for 1 min. For 5-HT1A binding assays, the cortex tissues were homogenised in 30 volumes/weight ice-cold 50 mM Tris–HCl buffer (pH 7.4), and the homogenate was centrifuged at 40,000× g for 15 min at 0 °C to 4 °C. The resulting pellets were resuspended in 30 volumes/weight of the same buffer, and incubated at 37 °C for 20 min. The centrifugation step was repeated twice under the same conditions as described above, and the final pellets were resuspended in 30 volumes/weight 50 mM Tris–HCl buffer (pH 7.4), and stored at –80 […]
For the [3H]-8-OH-DPAT binding assay (the 5-HT1A receptor binding assay), the membranes were thawed and resuspended in 50 mM Tris–HCl (pH 7.4) with 1 mM MnCl2, to a final protein concentration of 0.5 mg/mL. The incubation was carried out at 25 °C for 1 h in a final volume of 1 mL membrane suspension in the presence of the sample assayed and with 0.2 nM [3H]-8-OH-DPAT (170.2 Ci/mmol). Serotonin was used as the positive control. Non-specific binding was determined in parallel incubations in the presence of serotonin (10 μM).
4.2.11 Tail suspension test
The tail suspension test was carried out according to the methodology proposed by Steru and co-workers.22 The mice were individually suspended by the tail from a metal hook (distance

SH-SY5Y cells = assay: MTS cytotoxicity assay; settings: 24 h, 5 μM and 10 μM
5-HT1A receptor = target: T1, 5-HT1A receptor (Rattus norvegicus, UniProt P19327); assay: [3H]-8-OH-DPAT radioligand binding assay, rat cortex membranes; settings: for Ki: [3H]-8-OH-DPAT binding, means ±SEM; for inhibition at 300 µM: read-out: Inhibition at 300 µM
T1 construct: from tissue; host or cells: rat (male Wistar) brain cortex membranes
T1 sequence (P19327 1-422): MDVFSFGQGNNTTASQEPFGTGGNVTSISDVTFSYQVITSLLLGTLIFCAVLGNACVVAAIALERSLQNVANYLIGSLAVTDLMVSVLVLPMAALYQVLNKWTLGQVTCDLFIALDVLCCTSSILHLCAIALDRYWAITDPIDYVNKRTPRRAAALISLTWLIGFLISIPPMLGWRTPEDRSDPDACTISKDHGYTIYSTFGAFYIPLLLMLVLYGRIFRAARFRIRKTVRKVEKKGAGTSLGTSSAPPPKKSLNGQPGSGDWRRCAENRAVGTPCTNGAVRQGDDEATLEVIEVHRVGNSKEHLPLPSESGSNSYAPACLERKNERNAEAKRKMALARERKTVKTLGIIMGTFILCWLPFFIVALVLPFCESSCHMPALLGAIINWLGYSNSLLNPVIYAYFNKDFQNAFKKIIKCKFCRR

MAO-A/B = assay: In vitro MAO inhibition in mouse brain homogenate, p-tyramine substrate; assay type: biochemical
[5] = Chemical stability and photoisomerization by proton NMR in D2O; assay type: physicochemical; settings: hydrochloride salts, more than 1 year at room temperature protected from sunlight, 1H NMR in D2O
Protocol: Possible chemical instability and photoisomerization of E/Z isomers were also addressed as these are known liabilities of stilbene derivatives.[23] Proton NMRs of 69 (cis derivative), 84 (trans derivative), and 100 (ethyl analogue) in the form of hydrochloride salts were recorded in D2O (Figures S1–S3). […] The samples dissolved in the NMR tubes were then left on the benchtop exposed to natural daylight for 7 days, which could induce photoisomerization. […] Altogether, these studies imply reasonable stability of the compounds.
Figure S2. […] Compound 84 (trans isomer, […]
hydrochloride salt) was dissolved in D2O and the spectra were recorded at time 0 h, 1 h, 24 h and 7 days. Sample was exposed to day light in between the measurement, which could induce photoisomerization and potentially also chemical degradation.
The sample was previously stored at […]

Swiss mice [6] = assay: Body mass and survival during 10-day treatment; assay type: in vivo; settings: 0.3 mg/kg ip daily
Protocol: Figure S9. In vivo effects of chronic treatment on body mass. Body mass variation (Percent weight) (mean ±SEM) in mice throughout the 10-day i.p. treatment with 69 (0.3 mg/kg; n = 10), 100 (0.3 mg/kg; n = 8) and saline (SAL; n = 16). Data are means ±SEM. All animals survived the treatments.

[7] = In vitro permeability, rat intestine in diffusion chambers; assay type: in vitro ADME
hMAO-A = target: T2, hMAO-A (Homo sapiens, UniProt P21397); assay: hMAO-A inhibition, HRP–Amplex Red coupled fluorimetric assay; assay type: biochemical; settings: supplement csv; RA at 100 micromolar
T2 construct: purchased Sigma Aldrich; host or cells: baculovirus-infected insect cells (BTI-TN-5B1-4)
T2 sequence (P21397 1-527): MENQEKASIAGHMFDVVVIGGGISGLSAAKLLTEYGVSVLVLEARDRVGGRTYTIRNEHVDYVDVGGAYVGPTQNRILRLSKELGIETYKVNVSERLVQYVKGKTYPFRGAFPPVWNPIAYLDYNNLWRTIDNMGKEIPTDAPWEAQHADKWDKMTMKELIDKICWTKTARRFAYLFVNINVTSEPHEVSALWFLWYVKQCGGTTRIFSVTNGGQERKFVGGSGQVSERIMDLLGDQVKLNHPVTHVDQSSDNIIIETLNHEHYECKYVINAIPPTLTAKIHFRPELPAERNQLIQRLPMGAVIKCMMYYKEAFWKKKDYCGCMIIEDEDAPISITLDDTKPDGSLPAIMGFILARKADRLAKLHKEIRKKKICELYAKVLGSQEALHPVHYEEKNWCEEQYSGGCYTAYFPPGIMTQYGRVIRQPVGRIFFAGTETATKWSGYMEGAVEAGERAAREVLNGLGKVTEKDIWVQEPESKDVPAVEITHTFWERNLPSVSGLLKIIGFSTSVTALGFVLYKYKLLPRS

Swiss mice [8] = assay: Haloperidol-induced catalepsy test; assay type: in vivo, mouse; settings: 5 mg/kg, reference drug

Row | thermodynamic solubility [3] | Ki (5-HT1A receptor) [nM] | inhibition at 300 µM (5-HT1A receptor) [%] | SMILES | Open arm entries (%) (Swiss mice [2]; acute ip, 3 mg/kg) | Time in centre (%) (Swiss mice [2]; acute ip, 3 mg/kg) | Time in open arms (%) (Swiss mice [2]; acute ip, 3 mg/kg) | Total arm entries (Swiss mice [2]; acute ip, 3 mg/kg) | immobility time, acute treatment (Swiss mice [4]) | cytotoxic effects (SH-SY5Y cells) | Open arm entries (%) (Swiss mice [2]; acute ip, 6 mg/kg) | Time in centre (%) (Swiss mice [2]; acute ip, 6 mg/kg) | Time in open arms (%) (Swiss mice [2]; acute ip, 6 mg/kg) | Total arm entries (Swiss mice [2]; acute ip, 6 mg/kg) | chemical stability on storage [5] | also measured
1 | at least 17.6 g/250 mL | 2400 ± 600 | 88 | C#CCN1CCC(/C=C\c2ccc(F)cc2)CC1 [Compound 6, (Z)-4-(4-Fluorostyryl)-1-(prop-2-yn-1-yl)piperidine] | 10.8 ±2.6 | 43.5 ±2.8 | 9.1 ±1.9 | 22.0 ±1.5 | significantly reduced | no significant cytotoxic effects | – | – | – | – | – | spontaneous locomotor activity (Swiss mice [1]; acute 10 mg/kg ip): significantly decreased; increase in the proportion of open-arm entries (Swiss mice [2]; 10 mg/kg ip, vs 0.9% saline): 2.0 fold; Open arm entries (%) (Swiss mice [2]; acute ip, 10 mg/kg): 27.5 ±3.2%; Time in open arms (%) (Swiss mice [2]; acute ip, 10 mg/kg): 8.4 ±2.7%
2 | ≥ 10.5 g/250 mL | 700 ± 100 | 96 | C#CCN1CCC(/C=C\c2ccccc2)CC1 [Compound 67, (Z)-1-(Prop-2-yn-1-yl)-4-styrylpiperidine] | 15.0 ±2.3 | 39.8 ±1.7 | 11.9 ±2.3 | 20.6 ±2.4 | did not decrease the immobility time | no significant cytotoxic effects | 15.6 ±3.4 | 53.1 ±5.7 | 5.4 ±1.0 | 15.4 ±0.8 | – | –
3 | – | – | 48 | C#CCN1CCC(/C=C/c2ccc(C(F)(F)F)cc2)CC1 [Compound 84, (E)-1-(Prop-2-yn-1-yl)-4-(4-(trifluoromethyl)styryl)piperidine] | – | – | – | – | – | no significant cytotoxic effects | – | – | – | – | only smaller amounts of impurities were detected; also recorded: partial degradation | IC50(MAO-A) class (hMAO-A): na (na-not_active(RA_at_100micromolar>50%))
4 | – | – | – | CN1[C@@H]2C[C@@H](OC(=O)[C@H](CO)c3ccccc3)C[C@H]1[C@@H]1O[C@@H]12 [Scopolamine, reference compound] | – | – | – | – | – | – | – | – | – | – | – | latency time to descend from the bar (Swiss mice [8]): significantly decreased the latency time
5 | – | – | – | NCCc1ccc(O)cc1 [p-Tyramine, reference compound] | – | – | – | – | – | – | – | – | – | – | – | K0.5 (MAO-A/B; substrate of MAO A/B, control mouse brain homogenates): 0.071 ± 0.032 mM

Row | SMILES | thermodynamic solubility [3] | Ki (5-HT1A receptor) [nM] | inhibition at 300 µM (5-HT1A receptor) [%] | Open arm entries (%) (Swiss mice [2]; acute ip, 3 mg/kg) | Time in centre (%) (Swiss mice [2]; acute ip, 3 mg/kg) | Time in open arms (%) (Swiss mice [2]; acute ip, 3 mg/kg) | Total arm entries (Swiss mice [2]; acute ip, 3 mg/kg) | immobility time, acute treatment (Swiss mice [4]) | cytotoxic effects (SH-SY5Y cells) | Open arm entries (%) (Swiss mice [2]; acute ip, 6 mg/kg) | Time in centre (%) (Swiss mice [2]; acute ip, 6 mg/kg) | Time in open arms (%) (Swiss mice [2]; acute ip, 6 mg/kg) | Total arm entries (Swiss mice [2]; acute ip, 6 mg/kg) | chemical stability on storage [5] | also measured
6 | C#CCN1CCC(/C=C\c2cccc(F)c2)CC1 [Compound 69, (Z)-4-(3-Fluorostyryl)-1-(prop-2-yn-1-yl)piperidine] | ≥ 8.6 g/250 mL | 1700 ± 120 | 92 | 28.0 ±2.9 | 38.0 ±2.9 | 19.8 ±1.6 | 22.9 ±1.6 | did not decrease the immobility time | no significant cytotoxic effects | 13.3 ±1.2 | 41.4 ±4.1 | 7.1 ±1.6 | 20.4 ±1.3 | no signs of chemical instability | locomotor activity (Swiss mice [1]; 10-day treatment, 0.3 mg/kg, 5-min session): 598.3 ±14.7 counts; effects in the locomotor activity test, chronic low dose (Swiss mice [1]; 10-day, 0.3 mg/kg ip daily): No significant effects; locomotion (Swiss mice [1]; acute 3 mg/kg ip): not altered; Time in centre (%) (Swiss mice [2]; 10-day treatment, 0.3 mg/kg): 28.8 ±4.5%; Time in open arms (%) (Swiss mice [2]; 10-day treatment, 0.3 mg/kg): 11.8 ±3.7%; effects in the elevated plus maze, chronic low dose (Swiss mice [2]; 10-day, 0.3 mg/kg ip daily): No significant effects; Open arm entries (%) (Swiss mice [2]; acute ip, 1 mg/kg): 15.9 ±5.1%; Time in centre (%) (Swiss mice [2]; acute ip, 1 mg/kg): 36.4 ±7.7%; Total arm entries (Swiss mice [2]; acute ip, 1 mg/kg): 17.4 ±2.5; residual activity, p-tyramine (0.5 mM), in vitro (MAO-A/B; 50 μM compound, homogenate from nontreated mice): 31.3 ± 0.2%; immobility time, chronic treatment (Swiss mice [4]; 10-day, 0.3 mg/kg ip daily): significantly decreased the immobility time; body mass variations versus control mice (Swiss mice [6]): No significant differences; Papp A→B at 50 µM ([7]; male, Sprague-Dawley, pH 7.4, rat intestine, 50 μM donor, mean ± SEM, read-out: apparent permeability coefficient, absorptive direction): 10.8 ± 1.3 ×10⁻⁶ cm/s; Papp B→A at 50 µM ([7]; male, Sprague-Dawley, pH 7.4, rat intestine, 50 μM donor, mean ± SEM, read-out: apparent permeability coefficient, eliminatory direction): 35.4 ± 9.9 ×10⁻⁶ cm/s; permeability classification ([7]; rat intestine in vitro): intermediate/moderate permeability
